The values that follow come from ChEMBL document CHEMBL5338801, “Carbohydrate Strengthens the Immunotherapeutic Effect of Small-Molecule PD-L1 Inhibitors” (J Med Chem, 2023).

Calls of active or inactive are those of the source. The calls are words filed in the database; no cut-off is given here.

One data set concerns Jurkat. The experiment in a line: Cytotoxicity against human Jurkat cells assessed as cell growth inhibition incubated for 48 hrs by MTT assay. The format is functional, cell-based. On the technique in general: Tetrazolium dyes change colour on reduction, which living cells bring about.
Data set [1] addresses Programmed cell death protein 1/Programmed cell death 1 ligand 1 (Homo sapiens) (UniProt Q15116+Q9NZQ7). Conditions: dose 300.0 nM, time 15.0 min.
The nature of data set [2]: Partition coefficient, logD of compound in 1-octanol and phosphate buffer at pH 7.4 incubated for 1 hr under shaking condition by HPLC analysis. The note with it: 1-octanol/phosphate buffer, pH 7.4. The format is physicochemical.
A further data set relates to MC-38. The experiment in a line: Cytotoxicity against mouse MC38 cells assessed as cell death at 10 uM for 48 hrs by MTT assay. Type of data set: toxicity, cell-based. The note with it: mc-38, 48 h.
The test system of data set [3] is RKO. The experiment in a line: Cytotoxicity against human RKO cells over expressing human PD-L1 at above 10 uM. Type of data set: toxicity, cell-based.
Data set [4] can be described thus: Cytotoxicity against human Jurkat T cells assessed as cell viability at 10 uM incubated for 48 hrs by MTT assay. The format is toxicity, cell-based. Conditions: read-out: Activity.
The target in data set [5] is Programmed cell death 1 ligand 1 (Homo sapiens) (UniProt Q9NZQ7). As to the kind of experiment: Induction of human PD-L1 degradation expressed in MC38 cells at 10 uM cocultured for 72 hrs by Western blotting analysis. Type of data set: cell-based. On the technique in general: In western blotting, separated proteins are transferred to a membrane and probed.
Chain of Programmed cell death 1 ligand 1 (Homo sapiens) (Q9NZQ7 whole entry): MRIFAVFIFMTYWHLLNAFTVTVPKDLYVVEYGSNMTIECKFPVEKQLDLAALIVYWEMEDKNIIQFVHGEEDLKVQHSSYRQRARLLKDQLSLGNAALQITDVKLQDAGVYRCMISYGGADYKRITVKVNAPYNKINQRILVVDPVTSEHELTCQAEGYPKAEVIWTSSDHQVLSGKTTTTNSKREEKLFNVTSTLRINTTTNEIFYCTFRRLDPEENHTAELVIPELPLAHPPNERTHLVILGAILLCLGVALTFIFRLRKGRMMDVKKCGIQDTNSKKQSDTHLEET
The target is the same in data set [6]. As to the kind of experiment: Inhibition of human PD-L1 overexpressed in RKO cells assessed as reduction in membrane activity cocultured for 48 hrs by flow cytometry analysis. Type of data set: cell-based.
Data set [7] relates to RKO. As to the kind of experiment: Cytotoxicity against human RKO cells over expressing human PD-L1 at 50 uM. Type of data set: toxicity, cell-based.

As usually defined, the IC50 is the concentration needed to halve the response being measured. The inhibition is the change of the read-out against control, counted positive when it falls. In the case of `Cc1c(COc2ccc(Cl)c(CNCCO)c2)cccc1-c1ccccc1`, in the data set on Jurkat, the IC50 is 12.4 µM. This compound registered an inhibition in [1] of 36.7%.
One may read the logD as the decadic logarithm of the distribution of all forms, ionised or not, between an organic phase and buffer at a given pH. Lower therefore signals lower lipophilicity. As for `COc1cc(OCc2cccc(-c3ccccc3)c2C)cc(OC)c1CN[C@H](C)CO`, in the data set with Jurkat, the half-maximal inhibitory concentration (IC50) came to 2.8 µM. Also, the logD at 1 h in [2] is 3.25. Also, the Activity result in the data set with MC-38 and in the data set on RKO [3] was “Toxic” throughout.
With `COc1cc(OCc2cccc(-c3ccccc3)c2C)cc(OC)c1CNCCO`, the IC50 in the data set on Jurkat was determined as 5.7 µM. The logD at 1 h in [2] came to 2.85. Also, the viability at 48 h, 10 µM in data set [4] came to 0%.
On to `COc1nc(OCc2cccc(-c3ccccc3)c2C)ccc1CNCCO[C@H]1O[C@H](CO)[C@@H](O)[C@H](O)[C@@H]1O`, for which the result in data set [5] was Active. The inhibition entry in data set [6] is “Active”. For the same compound, the Activity result in the data set with RKO [7] was “Non-Toxic”.
On to `COc1nc(OCc2cccc(-c3ccccc3)c2C)ccc1CNCCO`, for which, in the data set with Jurkat, the IC50 turned out to be 2.8 µM. This compound also gave a logD at 1 h in data set [2] of 3.23. Also, in [4], the viability at 48 h, 10 µM was determined as 0%. The inhibition in data set [1] worked out at 94.5%.
Regarding `Cc1c(COc2ccc(CNCCO)cc2F)cccc1-c1ccccc1`, the IC50 in the data set with Jurkat worked out at 5.4 µM. Further, the inhibition in [1] came out at 57.1%.
For `COc1ccc(CNCCO)cc1OCc1cccc(-c2ccccc2)c1C` the same measures were 17.9 µM and 26.9%.
